{
  "source": "patent US9623017B2",
  "about": "(priority 2014, dated 2017)",
  "key": {"[1]": {"experiment": "Skin flux evaluation, Franz Cell Diffusion method", "type": "in vitro ADME, human", "details": "film without lidocaine (n=7) vs patch with lidocaine, 32° C., 72-hour period", "protocol": "The diffusion of lidocaine API and naltrexone from the 4:3 naltrexone: 5-methyl-2-furaldehyde cocrystal in the transdermal patch to the skin was studied using a Franz Cell Diffusion (FCD) method. In the method, transdermal patches were placed on top of heat-separated human cadaver skin. The receptor solution (0.01M phosphate buffer, pH 5.76) was analyzed for lidocaine and naltrexone content over time by HPLC using the methods discussed above. In one set of experiments the method used four transdermal patches (n=4) and was carried out at 32° C. […] In another set of experiments a similar film was prepared as above without lidocaine (Dow Medical Fluid 100-5%/Dow 7-4201-88%/NTX-Co-7%). NTX-Co transdermal flux (n=7) was measured through heat-separated human cadaver skin using Franz Cell Diffusion cells at 32° C."}, "[2]": {"experiment": "Solubility of the cocrystal in heptane", "type": "physicochemical", "description": "A drug-in-adhesive transdermal patch of the invention may be manufactured using methods known in the art. The 4:3 naltrexone: 5-methyl-2-furaldehyde cocrystal particles may be incorporated into the drug-in-adhesive layer also using known methods such as melt blending. The 4:3 naltrexone: 5-methyl-2-furaldehyde cocrystal particles may be dispersed in a liquid in which the cocrystal is not soluble or only sparingly soluble (a “non-solvent”) and then added to a solution of the other drug-in-adhesive layer components in that same liquid. Alternatively, the 4:3 naltrexone: 5-methyl-2-furaldehyde cocrystal particles may be dispersed into the solution of the drug-in-adhesive components itself. Use of a non-solvent ensures that the cocrystal retains its crystalline form while forming the drug-in-adhesive layer. For the 4:3 naltrexone: 5-methyl-2-furaldehyde cocrystal, such a liquid will generally be a non-polar organic solvent. An example of such a solvent is heptane in which the 4:3 naltrexone: 5-methyl-2-furaldehyde cocrystal has a solubility of only 0.1 mg/mL at 5° C. and of 0.2 mg/mL at 50° C. Alternatively, the 4:3 naltrexone: 5-methyl-2-furaldehyde cocrystal particles may be incorporated into the drug-in-adhesive layer also using known methods such as melt blending."}, "[3]": {"experiment": "Dynamic vapor sorption (DVS) analysis, Hiden IGAsorp", "type": "physicochemical", "protocol": "Approximately 10 mg of sample was placed into a mesh vapor sorption balance pan and loaded into a Hiden IGAsorp by Hiden. The sample was subjected to a ramping profile from 40-90% relative humidity (RH) at 10% increments, maintaining the sample at each step until a stable weight had been achieved (99.5% step completion). After completion of the sorption cycle, the sample was dried using the same procedure to 0% RH the sample was then subsequently taken back to 40% RH using the same procedure.\nA DVS analysis of the 4:3 naltrexone: 5-methyl-2-furaldehyde cocrystal was performed using Hiden IGAsorp method."}},
  "data": [
    {"substance": "4:3 naltrexone: 5-methyl-2-furaldehyde cocrystal", "values": [
      {"measurement": "transdermal flux", "setting": "[1]", "result": "lower in the absence of lidocaine"},
      {"measurement": "solubility in heptane", "setting": "[2]; 5° C.", "result": 0.1, "unit": "mg/mL"},
      {"measurement": "solubility in heptane", "setting": "[2]; 50° C.", "result": 0.2, "unit": "mg/mL"},
      {"measurement": "hygroscopicity (DVS)", "setting": "[3]; DVS kinetic analysis", "result": "not hygroscopic"},
      {"measurement": "XRPD pattern of material reclaimed after DVS experiment", "setting": "[3]; after DVS cycle, compared with FIG. 1", "result": "same XRPD pattern as in FIG. 1"},
      {"measurement": "mass change (DVS)", "setting": "[3]; ramping 40-90% RH, drying to 0% RH, back to 40% RH", "result": "< 3", "unit": "%"}
    ]}
  ]
}
